{"source": "patent US20230330230A1", "about": "“SENSITISER FOR CANCER TREATMENT” (KORTUC INC, priority 2020, published 2023)", "origin": "cited, not measured here", "key": {"[1]": {"tested_on": "prostate cancer (PC-3) cell line"}, "[2]": {"tested_on": "osteosarcoma (HS-Os-1) cell line"}, "[3]": {"conditions": "0.1 mM H2O2 prior to IR, without DNA double strand breaks"}}}
{"compound": "OO", "note": "[H2O2, hydrogen peroxide]", "values": [{"measurement": "response to H2O2 alone", "setting": "[1]", "result": "extreme resistance"}, {"measurement": "effect of H2O2 prior to IR", "setting": "[1]; [3]", "result": "enhanced cytotoxicity"}, {"measurement": "response to H2O2 alone", "setting": "[2]", "result": "extreme resistance"}, {"measurement": "effect of H2O2 prior to IR", "setting": "[2]; [3]", "result": "enhanced cytotoxicity"}]}
